Experimental data: patent publication US20080176936A1, “Classes of Compounds that Interact with Integrins” (priority 2005, published 2008)

Experiments:
[1] = molecular target: T1, αllbβ3 integrin (Homo sapiens, UniProt P05106+P08514); experiment: ELISA: inhibition of binding of αllbβ3 integrin membrane preparation to coated extracellular matrix protein; settings: human platelet membrane preparation
T1 construct: Human platelet membrane preparations were used as a source of αllbβ3 integrin; from tissue; host or cells: human platelets (membrane preparation)
In short: (§1)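 Integrin sources were human platelet membrane preparations for αIIbβ3 and WM-115 cells for αVβ3, each preincubated with test compound. Binding to fibrinogen- or vitronectin-coated plates (10 µg/well) was quantified with an anti-integrin β3 antibody and an HRP-coupled secondary antibody using colorimetric detection.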

[2] = molecular target: T2, αVβ3 integrin (Homo sapiens, UniProt P05106+P06756); experiment: ELISA: inhibition of binding of αVβ3 integrin (source WM-115 cell line) to coated extracellular matrix protein; settings: WM-115 cell line as integrin source
T2 construct: the cell line WM-115 was used as a source of αVβ3 integrin; endogenous in cells; host or cells: WM-115 cell line
In short: as §1

T1 sequence (P08514 32-887 limits assumed): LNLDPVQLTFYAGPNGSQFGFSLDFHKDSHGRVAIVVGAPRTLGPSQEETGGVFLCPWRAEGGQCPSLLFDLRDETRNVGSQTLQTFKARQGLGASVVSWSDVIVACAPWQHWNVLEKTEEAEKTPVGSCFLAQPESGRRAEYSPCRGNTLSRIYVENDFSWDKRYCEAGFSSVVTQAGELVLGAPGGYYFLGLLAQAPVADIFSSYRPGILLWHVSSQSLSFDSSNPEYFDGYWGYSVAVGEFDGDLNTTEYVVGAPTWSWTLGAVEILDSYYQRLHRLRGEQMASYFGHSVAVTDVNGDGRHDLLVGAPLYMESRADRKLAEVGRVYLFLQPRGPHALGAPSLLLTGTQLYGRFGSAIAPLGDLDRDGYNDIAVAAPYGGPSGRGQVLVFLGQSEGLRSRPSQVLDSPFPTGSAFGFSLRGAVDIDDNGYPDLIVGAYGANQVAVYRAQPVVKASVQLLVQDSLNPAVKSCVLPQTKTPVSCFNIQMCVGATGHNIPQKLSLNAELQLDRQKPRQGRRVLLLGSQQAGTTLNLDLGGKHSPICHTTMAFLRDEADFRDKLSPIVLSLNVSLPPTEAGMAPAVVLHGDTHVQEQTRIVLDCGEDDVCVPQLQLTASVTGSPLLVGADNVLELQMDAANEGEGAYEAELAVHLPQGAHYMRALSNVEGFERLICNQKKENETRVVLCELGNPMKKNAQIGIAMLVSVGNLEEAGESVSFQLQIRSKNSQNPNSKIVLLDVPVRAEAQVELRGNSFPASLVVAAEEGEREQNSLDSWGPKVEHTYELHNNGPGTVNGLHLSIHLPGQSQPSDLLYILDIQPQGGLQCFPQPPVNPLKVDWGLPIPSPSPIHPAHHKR
T1 sequence (P08514 891-1039 partner limits assumed): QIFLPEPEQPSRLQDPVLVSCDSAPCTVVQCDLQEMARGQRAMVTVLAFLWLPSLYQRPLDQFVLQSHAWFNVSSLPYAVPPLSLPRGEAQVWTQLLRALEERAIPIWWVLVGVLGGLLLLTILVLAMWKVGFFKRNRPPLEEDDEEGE
T1 sequence (P05106 27-788): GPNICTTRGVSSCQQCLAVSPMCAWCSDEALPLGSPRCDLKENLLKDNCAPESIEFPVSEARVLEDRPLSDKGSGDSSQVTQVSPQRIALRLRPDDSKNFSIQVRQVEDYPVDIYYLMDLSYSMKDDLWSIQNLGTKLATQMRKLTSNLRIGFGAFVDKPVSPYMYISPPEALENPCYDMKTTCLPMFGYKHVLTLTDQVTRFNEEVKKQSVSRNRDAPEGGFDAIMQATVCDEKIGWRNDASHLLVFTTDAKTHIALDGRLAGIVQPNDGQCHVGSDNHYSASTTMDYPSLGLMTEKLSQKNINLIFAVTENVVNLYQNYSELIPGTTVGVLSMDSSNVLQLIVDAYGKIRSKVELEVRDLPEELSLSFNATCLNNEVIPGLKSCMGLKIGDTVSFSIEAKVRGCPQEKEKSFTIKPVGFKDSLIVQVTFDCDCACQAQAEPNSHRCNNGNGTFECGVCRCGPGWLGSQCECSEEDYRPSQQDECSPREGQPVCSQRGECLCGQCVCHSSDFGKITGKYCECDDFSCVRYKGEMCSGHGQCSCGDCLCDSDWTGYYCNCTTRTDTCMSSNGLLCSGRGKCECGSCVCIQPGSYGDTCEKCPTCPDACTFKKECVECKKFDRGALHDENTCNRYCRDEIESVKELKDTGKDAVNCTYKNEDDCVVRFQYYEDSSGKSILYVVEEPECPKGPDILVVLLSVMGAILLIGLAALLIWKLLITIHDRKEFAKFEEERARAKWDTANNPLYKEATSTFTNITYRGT
T2 sequence (P06756 31-889 limits assumed): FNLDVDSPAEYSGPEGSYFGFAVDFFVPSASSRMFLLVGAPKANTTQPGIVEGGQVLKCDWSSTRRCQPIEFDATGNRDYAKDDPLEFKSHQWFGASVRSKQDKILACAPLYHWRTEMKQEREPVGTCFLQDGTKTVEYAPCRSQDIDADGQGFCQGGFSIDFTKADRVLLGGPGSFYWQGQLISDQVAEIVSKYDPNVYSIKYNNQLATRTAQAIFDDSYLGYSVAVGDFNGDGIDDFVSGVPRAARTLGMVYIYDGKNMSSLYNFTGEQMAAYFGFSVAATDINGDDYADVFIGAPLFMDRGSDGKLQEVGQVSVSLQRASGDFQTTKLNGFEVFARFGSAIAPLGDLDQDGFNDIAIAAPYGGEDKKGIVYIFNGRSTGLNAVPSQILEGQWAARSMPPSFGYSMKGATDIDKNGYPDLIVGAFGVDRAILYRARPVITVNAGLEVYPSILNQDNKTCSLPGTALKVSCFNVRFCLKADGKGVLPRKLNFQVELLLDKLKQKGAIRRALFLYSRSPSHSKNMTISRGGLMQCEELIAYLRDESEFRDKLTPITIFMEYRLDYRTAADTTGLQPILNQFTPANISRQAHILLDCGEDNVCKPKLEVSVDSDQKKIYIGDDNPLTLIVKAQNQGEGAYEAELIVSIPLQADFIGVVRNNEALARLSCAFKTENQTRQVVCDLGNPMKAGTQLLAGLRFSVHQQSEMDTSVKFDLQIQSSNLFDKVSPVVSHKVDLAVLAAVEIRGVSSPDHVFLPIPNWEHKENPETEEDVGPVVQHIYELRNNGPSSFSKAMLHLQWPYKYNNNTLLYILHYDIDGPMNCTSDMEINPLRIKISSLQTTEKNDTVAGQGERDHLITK
T2 sequence (P06756 891-1048 partner limits assumed): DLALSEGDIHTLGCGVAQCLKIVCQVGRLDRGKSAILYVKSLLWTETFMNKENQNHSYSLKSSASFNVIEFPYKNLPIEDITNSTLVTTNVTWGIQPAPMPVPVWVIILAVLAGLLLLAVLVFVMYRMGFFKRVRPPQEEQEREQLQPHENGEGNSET
T2 sequence (P05106 27-788): as the sequence (P05106 27-788) above

Structure (SMILES) | INHIBITION @ 250 uM RECEPTOR allBb3 SUBSTRATE FIBRINOGEN [1] | INHIBITION 250 uM RECEPTOR allBb3 SUBSTRATE VITRONECTIN [1] | INHIBITION 250 uM RECEPTOR aVb3 SUBSTRATE FIBRINOGEN [2]
COC(=O)COCC1OC(OC)C(NC(=O)CCCNC(=N)N)C(OCc2ccccc2)C1O (single isomer, unassigned) [Compound 126] | ++ (61% to 80% inhibition at 250 micromolar) | +++ (81% to 100% inhibition at 250 micromolar) | +++ (81% to 100% inhibition at 250 micromolar)
N=C(N)NCCC(=O)NC1C(OCc2ccccc2)OC(CO)C(O)C1OCC(=O)O (single isomer, unassigned) [Compound 94] | − (0% to 35% inhibition at 250 micromolar) | + (36% to 60% inhibition at 250 micromolar) | − (0% to 35% inhibition at 250 micromolar)
Nc1cccc(COC2C(O)C(CO)OC(OCc3ccccc3)C2NC(=O)c2ccc(C(=O)O)cc2)c1 (single isomer, unassigned) [Compound 109] | − (0% to 35% inhibition at 250 micromolar) | +++ (81% to 100% inhibition at 250 micromolar) | − (0% to 35% inhibition at 250 micromolar)
CCOC1O[C@H](COCc2cccc(N)c2)[C@@H](O)[C@H](OCc2ccccc2)[C@H]1NC(=O)c1ccc(C(=O)O)cc1 (single isomer, unassigned) [Compound 36] | + (36% to 60% inhibition at 250 micromolar) | +++ (81% to 100% inhibition at 250 micromolar) | +++ (81% to 100% inhibition at 250 micromolar)
COC1OC(COCc2ccc(Br)cc2)C(O)C(OCC(=O)O)C1NC(=O)c1cccc(N)c1 (single isomer, unassigned) [Compound 7] | + (36% to 60% inhibition at 250 micromolar) | +++ (81% to 100% inhibition at 250 micromolar) | + (36% to 60% inhibition at 250 micromolar)
COCC1OC(OCc2ccccc2)C(NC(=O)CCNC(=N)N)C(OCC(=O)O)C1O (single isomer, unassigned) [Compound 90] | − (0% to 35% inhibition at 250 micromolar) | +++ (81% to 100% inhibition at 250 micromolar) | − (0% to 35% inhibition at 250 micromolar)
COC1OC(COCc2ccccc2)C(O)C(OCC(=O)O)C1NC(=O)c1cccc(N)c1 (single isomer, unassigned) [Compound 6] | − (0% to 35% inhibition at 250 micromolar) | +++ (81% to 100% inhibition at 250 micromolar) | +++ (81% to 100% inhibition at 250 micromolar)
Nc1cccc(COC2C(O)C(COCc3ccc(Br)cc3)OC(O)C2NC(=O)CCC(=O)O)c1 (single isomer, unassigned) [Compound 26] | + (36% to 60% inhibition at 250 micromolar) | +++ (81% to 100% inhibition at 250 micromolar) | ++ (61% to 80% inhibition at 250 micromolar)
Nc1cccc(COCC2OC(O)C(NC(=O)c3ccc(Cl)cc3)C(OCc3ccc(C(=O)O)cc3)C2O)c1 (single isomer, unassigned) [Compound 66] | + (36% to 60% inhibition at 250 micromolar) | +++ (81% to 100% inhibition at 250 micromolar) | + (36% to 60% inhibition at 250 micromolar)
CCOC1OC(COCc2ccc(C(=O)O)cc2)C(O)C(OCc2cccc(N)c2)C1NC(=O)c1ccc(Cl)cc1 (single isomer, unassigned) [Compound 78] | − (0% to 35% inhibition at 250 micromolar) | +++ (81% to 100% inhibition at 250 micromolar) | +++ (81% to 100% inhibition at 250 micromolar)
Nc1cccc(COC2C(O)C(COCc3ccc(Br)cc3)OC(O)C2NC(=O)c2ccc(C(=O)O)cc2)c1 (single isomer, unassigned) [Compound 74] | − (0% to 35% inhibition at 250 micromolar) | +++ (81% to 100% inhibition at 250 micromolar) | − (0% to 35% inhibition at 250 micromolar)
CCOC1O[C@H](COCc2cccc(N)c2)[C@@H](O)[C@H](OCc2ccc(Br)cc2)[C@H]1NC(=O)CCC(=O)O (single isomer, unassigned) [Compound 44] | ++ (61% to 80% inhibition at 250 micromolar) | − (0% to 35% inhibition at 250 micromolar) | + (36% to 60% inhibition at 250 micromolar)
CCOC1O[C@H](COCc2ccc(Br)cc2)[C@@H](O)[C@H](OCC(=O)O)[C@H]1NC(=O)CCNC(=N)N (single isomer, unassigned) [Compound 52] | + (36% to 60% inhibition at 250 micromolar) | ++ (61% to 80% inhibition at 250 micromolar) | +++ (81% to 100% inhibition at 250 micromolar)
CCC(=O)NC1C(OCc2ccccc2)OC(COCc2cccc(N)c2)C(O)C1OCc1ccc(C(=O)O)cc1 (single isomer, unassigned) [Compound 103] | ++ (61% to 80% inhibition at 250 micromolar) | +++ (81% to 100% inhibition at 250 micromolar) | +++ (81% to 100% inhibition at 250 micromolar)
COC(=O)c1ccc(COC2C(O)C(COCc3ccccc3)OC(OC)C2NC(=O)CCNC(=N)N)cc1 (single isomer, unassigned) [Compound 13] | + (36% to 60% inhibition at 250 micromolar) | +++ (81% to 100% inhibition at 250 micromolar) | − (0% to 35% inhibition at 250 micromolar)
COC1OC(COCc2cccc(N)c2)C(O)C(OCc2ccc(C(=O)O)cc2)C1NC(=O)c1ccccc1 (single isomer, unassigned) [Compound 19] | ++ (61% to 80% inhibition at 250 micromolar) | +++ (81% to 100% inhibition at 250 micromolar) | +++ (81% to 100% inhibition at 250 micromolar)
Nc1cccc(C(=O)N[C@H]2C(O)O[C@H](COCC(=O)O)[C@@H](O)[C@@H]2OCc2ccc(Br)cc2)c1 (stereo partly drawn) [Compound 2] | ++ (61% to 80% inhibition at 250 micromolar) | +++ (81% to 100% inhibition at 250 micromolar) | ++ (61% to 80% inhibition at 250 micromolar)
COC1OC(COCC(=O)O)C(O)C(OCc2ccccc2)C1NC(=O)CCCNC(=N)N (single isomer, unassigned) [Compound 125] | + (36% to 60% inhibition at 250 micromolar) | +++ (81% to 100% inhibition at 250 micromolar) | + (36% to 60% inhibition at 250 micromolar)
CCOC1O[C@H](COCc2ccc(Br)cc2)[C@@H](O)[C@H](OCc2ccc(C(=O)O)cc2)[C@H]1NC(=O)CCNC(=N)N (single isomer, unassigned) [Compound 61] | − (0% to 35% inhibition at 250 micromolar) | +++ (81% to 100% inhibition at 250 micromolar) | +++ (81% to 100% inhibition at 250 micromolar)
COC1OC(COCC(=O)O)C(O)C(OCc2ccccc2)C1NC(=O)c1ccc(CNC(=N)N)cc1 (single isomer, unassigned) [Compound 129] | − (0% to 35% inhibition at 250 micromolar) | +++ (81% to 100% inhibition at 250 micromolar) | − (0% to 35% inhibition at 250 micromolar)
CCOC1OC(COCC(=O)O)C(O)C(OCc2ccccc2)C1NC(=O)CN (single isomer, unassigned) [Compound 116] | − (0% to 35% inhibition at 250 micromolar) | − (0% to 35% inhibition at 250 micromolar) | − (0% to 35% inhibition at 250 micromolar)
CCOC1O[C@H](COCc2ccc(Br)cc2)[C@@H](O)[C@H](OCc2ccc(C(=O)O)cc2)[C@H]1NC(=O)CCNC(=N)N (single isomer, unassigned) [Compound 60] | + (36% to 60% inhibition at 250 micromolar) | +++ (81% to 100% inhibition at 250 micromolar) | +++ (81% to 100% inhibition at 250 micromolar)
